In patent US12275687B2 (priority 2017, dated 2025):
Changes are numbered by the printed parent chain. pIC50, pKi: −log10 of the molar value.

How the values were obtained:
[1] = target: T1, wild-type BLT1 (Cavia porcellus, UniProt H0VYV8); assay: Competition binding assay of benzamidine and NaCl to 0.5 nM ^3H-LTB4 (allosteric modulation titration analysis); parameters: species or system guinea pig
T1 construct: expressed in transfected cells; host or cells: HEK293 (membrane fraction)
Excerpt: Each point (±s.e.m.) indicates the mean value of three independent experiments, each with triplicate reactions. […] Each point (±s.e.m.) indicates the mean value of three independent experiments, each with triplicate reactions. […] Each point (±s.e.m.) indicates the mean value of triplicate reactions. For the evaluation of the thermostabilities of guinea pig BLT1 mutants designed by the consensus method (FIG. 8A), point mutations were introduced using a QuikChange kit (Agilent) to the previously constructed thermostabilized BLT1 […] deleted, […] mutations, and an N-terminal FLAG-tag) in the pcDNA3 vector (Hori, T. et al., Protein Expr. Purif. 72 (2010) 66-74; Hori, T. et al., Biochem. Biophys. Rep. 4 (2015) 243-249). The expression vectors encoding the BLT1 mutants were transfected into COS-7 cells with Lipofectamine 2000. For the analysis of the BIIL260 binding residues of BLT1, point mutations were introduced, using the In-Fusion enzyme (Clontech), into the wild-type BLT1 cDNA with the N-terminal FLAG-tag in the pcDNA3 vector. The expression vectors were transfected into HEK293 cells, using polyethyleneimine. […] The BLT1 mutants were transiently expressed for three days at 37° C. The cells were washed with PBS, harvested with PBS-EDTA, disrupted with a sonicator, and centrifuged at 800×g for 5 min. The supernatant was further ultra-centrifuged at 100,000×g for 60 min, and the precipitate was collected. For the evaluation of the ligand-binding activity of the BLT1 mutants and BLT1-[…], a ^3H-LTB4 binding assay was performed using the BLT1-expressing membrane fractions of COS-7, HEK293, or P. pastoris cells, as described previously (Hori T. et al., 2010, supra; Hori T. et al., 2015, supra). For the evaluation of the thermostability, the membrane fraction was heat-treated before the ^3H-LTB4 binding assay. […] For all of the pharmacological analyses, nonlinear regression curve fitting was performed using Prism 5 (Graph Pad Software).

[2] = target: T1, wild-type BLT1; assay: Competition binding of BIIL260 to 0.5 nM ^3H-LTB4, wild-type BLT1 in HEK293 membrane fraction; parameters: species or system guinea pig; settings: WT
Excerpt: (A) Structure of the BIIL260-binding site. BIIL260 and the BLT1 side chains within 4 Å from BIIL260 are represented by stick models, and transmembrane helices are depicted by thin ribbons. Sulfur atoms are colored gold. (B) Schematic representation of the BLT1-BIIL260 interaction. Intermolecular forces such as the salt bridge, hydrogen bonding, π-to-edge, CH-to-π, and hydrophobic interactions are indicated in red, blue, orange, violet, and green, respectively. The three non-identical residues in human BLT1 and BLT2, a cognate receptor of BLT1, are highlighted in green shaded boxes, and the corresponding residues of human BLT1 and BLT2 (hBLT1 and hBLT2, respectively) are also presented. (C) Competition binding assays of BIIL260 to 0.5 nM ^3H-LTB4, using the membrane fractions of HEK293 cells expressing the mutant and wild-type BLT1s. The mutations were introduced at the residues involved in the specific BIIL260 binding. Each point (±s.e.m.) indicates the mean value of two independent experiments, each with triplicate reactions. NS is non-specific binding measured with 0.5 μM LTB4. […]

[3] = target: T2, BLT1 V69^2.53A mutant (Cavia porcellus, UniProt H0VYV8, V69A); assay: Competition binding of BIIL260 to 0.5 nM ^3H-LTB4, BLT1 mutant in HEK293 membrane fraction; parameters: species or system guinea pig
T2 construct: expressed in transfected cells; host or cells: HEK293 (membrane fraction)
T2 sequence (H0VYV8 1-348 V69A): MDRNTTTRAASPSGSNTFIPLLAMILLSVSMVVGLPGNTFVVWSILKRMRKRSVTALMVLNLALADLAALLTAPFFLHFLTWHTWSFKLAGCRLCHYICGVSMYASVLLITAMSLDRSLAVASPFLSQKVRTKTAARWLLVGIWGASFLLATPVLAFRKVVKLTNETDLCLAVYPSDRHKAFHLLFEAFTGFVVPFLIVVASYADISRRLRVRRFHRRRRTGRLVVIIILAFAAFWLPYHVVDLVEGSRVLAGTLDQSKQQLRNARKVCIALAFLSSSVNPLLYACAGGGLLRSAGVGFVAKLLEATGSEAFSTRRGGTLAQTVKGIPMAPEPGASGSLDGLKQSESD
Excerpt: (§1) (A) Structure of the BIIL260-binding site. BIIL260 and the BLT1 side chains within 4 Å from BIIL260 are represented by stick models, and transmembrane helices are depicted by thin ribbons. Sulfur atoms are colored gold. (B) Schematic representation of the BLT1-BIIL260 interaction. Intermolecular forces such as the salt bridge, hydrogen bonding, π-to-edge, CH-to-π, and hydrophobic interactions are indicated in red, blue, orange, violet, and green, respectively. The three non-identical residues in human BLT1 and BLT2, a cognate receptor of BLT1, are highlighted in green shaded boxes, and the corresponding residues of human BLT1 and BLT2 (hBLT1 and hBLT2, respectively) are also presented. (C) Competition binding assays of BIIL260 to 0.5 nM ^3H-LTB4, using the membrane fractions of HEK293 cells expressing the mutant and wild-type BLT1s. The mutations were introduced at the residues involved in the specific BIIL260 binding. Each point (±s.e.m.) indicates the mean value of two independent experiments, each with triplicate reactions. NS is non-specific binding measured with 0.5 μM LTB4.
(§2) For the evaluation of the thermostabilities of guinea pig BLT1 mutants designed by the consensus method (FIG. 8A), point mutations were introduced using a QuikChange kit (Agilent) to the previously constructed thermostabilized BLT1 mutant cDNA (residues 1-14 deleted, H83G/K88G/S309A mutations, and an N-terminal FLAG-tag) in the pcDNA3 vector (Hori, T. et al., Protein Expr. Purif. 72 (2010) 66-74; Hori, T. et al., Biochem. Biophys. Rep. 4 (2015) 243-249). The expression vectors encoding the BLT1 mutants were transfected into COS-7 cells with Lipofectamine 2000. For the analysis of the BIIL260 binding residues of BLT1, point mutations were introduced, using the In-Fusion enzyme (Clontech), into the wild-type BLT1 cDNA with the N-terminal FLAG-tag in the pcDNA3 vector. The expression vectors were transfected into HEK293 cells, using polyethyleneimine. […] The BLT1 mutants were transiently expressed for three days at 37° C. The cells were washed with PBS, harvested with PBS-EDTA, disrupted with a sonicator, and centrifuged at 800×g for 5 min. The supernatant was further ultra-centrifuged at 100,000×g for 60 min, and the precipitate was collected.
(§3) For the evaluation of the ligand-binding activity of the BLT1 mutants and BLT1-T4Ls, a ^3H-LTB4 binding assay was performed using the BLT1-expressing membrane fractions of COS-7, HEK293, or P. pastoris cells, as described previously (Hori T. et al., 2010, supra; Hori T. et al., 2015, supra). For the evaluation of the thermostability, the membrane fraction was heat-treated before the ^3H-LTB4 binding assay.

[4] = target: T3, BLT1 S276^7.45A mutant (Cavia porcellus, UniProt H0VYV8, S276A); assay: as above; parameters: species or system guinea pig
T3 construct: expressed in transfected cells; host or cells: HEK293 (membrane fraction)
T3 sequence (H0VYV8 1-348 S276A): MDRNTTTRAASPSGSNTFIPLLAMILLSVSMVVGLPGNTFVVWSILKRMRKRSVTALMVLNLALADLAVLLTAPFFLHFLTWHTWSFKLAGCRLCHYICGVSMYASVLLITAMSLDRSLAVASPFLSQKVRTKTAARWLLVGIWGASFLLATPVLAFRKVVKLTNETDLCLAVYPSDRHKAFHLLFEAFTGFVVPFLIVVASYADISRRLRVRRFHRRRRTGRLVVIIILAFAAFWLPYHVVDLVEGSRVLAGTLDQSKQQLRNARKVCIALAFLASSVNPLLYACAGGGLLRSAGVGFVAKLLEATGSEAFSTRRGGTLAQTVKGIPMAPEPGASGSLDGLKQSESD
Excerpt: as §1, §2, §3

[5] = target: T4, BLT1 D66^2.50A mutant (Cavia porcellus, UniProt H0VYV8, D66A); assay: as above; parameters: species or system guinea pig
T4 construct: expressed in transfected cells; host or cells: HEK293 (membrane fraction)
T4 sequence (H0VYV8 1-348 D66A): T2 sequence (H0VYV8 1-348 V69A) with D66A, A69V
Excerpt: as §1, §2, §3

[6] = target: T5, BLT1 L80^2.64A mutant (Cavia porcellus, UniProt H0VYV8, L80A); assay: as above; parameters: species or system guinea pig
T5 construct: expressed in transfected cells; host or cells: HEK293 (membrane fraction)
T5 sequence (H0VYV8 1-348 L80A): as the sequence (H0VYV8 1-348 S276A) above, with L80A, A276S counted along it
Excerpt: as §1, §2, §3

[7] = target: T6, BLT1 W236^6.48A mutant (Cavia porcellus, UniProt H0VYV8, W236A); assay: as above; parameters: species or system guinea pig
T6 construct: expressed in transfected cells; host or cells: HEK293 (membrane fraction)
T6 sequence (H0VYV8 1-348 W236A): as the sequence (H0VYV8 1-348 S276A) above, with W236A, A276S counted along it
Excerpt: as §1, §2, §3

[8] = target: T7, BLT1 S106^3.39A mutant (Cavia porcellus, UniProt H0VYV8, S106A); assay: as above; parameters: species or system guinea pig
T7 construct: expressed in transfected cells; host or cells: HEK293 (membrane fraction)
T7 sequence (H0VYV8 1-348 S106A): as the sequence (H0VYV8 1-348 S276A) above, with S106A, A276S counted along it
Excerpt: as §1, §2, §3

[9] = target: BLT1-T4L; assay: Competition assay of ligands against ^3H-LTB4, BLT1-T4L expressed in P. pastoris; type: binding, guinea pig; settings: for logIC50: log value (negative)
Excerpt: For the ligand binding assay of BLT1-T4Ls, the T4L cDNA was integrated into the cDNA, encoding the newly generated thermostable BLT1 mutant with the additional mutation V212A, by the consensus method (residues 1-14 deleted and H83G/K88G/V212A/S309A mutations), with the α-factor PrePro signal sequence and the FLAG tag at the N-terminal, and the PreScission site and the His6 tag at the C-terminal of BLT1 (Hori T. et al., 2010, supra) in the pPIC3.5K vector, using the In-Fusion enzyme (FIG. 7A). The expression vectors were introduced into the yeast Pichia pastoris using an EasyComp kit (Thermo Fisher Scientific). BLT1-T4Ls were expressed in 10 ml cultures, and the membrane fraction was prepared as described previously (Hori T. et al., 2010, supra; Hon T. et al., 2015, supra).
as §3

[10] = cooperative factor between ^3H-LTB4 and the modulator

T1 sequence (H0VYV8 1-348): as the sequence (H0VYV8 1-348 S276A) above, with A276S counted along it

SMILES	level of the LTB4-BLT1 binding ([1]; FIG. 3A)	logα [1, 10]	α [1, 10]	pIC50 [2]	logIC50 ([2]; log value (negative))	pIC50 [3]	logIC50 ([3]; log value (negative))	pIC50 ([4]; S276^7.45A)	BIIL260-binding ability ([4]; S276^7.45A mutation)	logIC50 ([4]; S276^7.45A, log value (negative))	logIC50 (IC50) ([5]; D66^2.50A)	BIIL260-binding ability ([5]; D66^2.50A mutation)	pIC50 [6]	logIC50 ([6]; log value (negative))	pIC50 [7]	logIC50 ([7]; log value (negative))	pIC50 [8]	logIC50 ([8]; log value (negative))	pKi [9]	logIC50 [9]
[Cl-].[Na+] [NaCl]	decreased in a sodium ion concentration-dependent manner	−1.5	(α = 0.035)																	
CC(C)(c1ccc(O)cc1)c1ccc(OCc2cccc(COc3ccc(C(=N)N)cc3)c2)cc1 [BIIL260]				7.52	−7.5	7.48	−7.5	6.91	decreased	−6.9	No binding	abrogated	7.92	−7.9	7.21	−7.2	7.92	−7.9	8.64	−8.5
CCOC(=O)NC(=N)c1ccc(OCc2cccc(COc3ccc(C(C)(C)c4ccc(O)cc4)cc3)c2)cc1																			6.83	−6.7
